Data reported in patent US20250232831A1, “METHOD FOR PREDICTING CELL MEMBRANE PERMEABILITY OF CYCLIC PEPTIDE” (FUJIFILM Corporation, priority 2022, published 2025).
Where two headings read alike, the source gives them in different places. Where a SMILES comes first, the peptide text is derived from it. Bridges are numbered along the chain shown (N, C = ends). [ ]: non-standard residue; d: D form. The star is where a group is joined. NMeL = CN[C@@H](CC(C)C)C(=O)O; hCys = N[C@@H](CCS)C(=O)O; NMeA = CN[C@@H](C)C(=O)O; Piperidide = C1CCN(*)CC1; dNMeA = CN[C@H](C)C(=O)O

Assay: Evaluation of cell membrane permeability (permeation test, permeability coefficient Papp)
Format: in vitro ADME
Settings: dog
Description: 300 μL of MDCK II cells (ECACC standard cell line) at a density of 1.0×10^6 cells/mL were seeded in an insert (dedicated for a 24-well plate, pore diameter: 3.0 μm, manufactured by Corning Incorporated), and cultured at 37° C. in a 5% CO2 environment. After 3 days, the electric resistance value of the cell layer (measuring device: Millicell (registered trademark) ERS-2 (manufactured by Millipore Corporation), electrode: ENDOHM-6 (manufactured by WPI, Inc.)) was measured, and it was confirmed that the cell layer had high barrier properties (>100 (2 Ω·cm^2).
The insert was washed by being immersed in a Hank's Balanced Salt Solution (HBSS) (phenol red-free), 200 μL of a sample prepared at 10 μmol/L/HBSS was added thereto, and the insert was allowed to stand in a low-adsorption 24-well plate containing 900 μL of HBSS (37° C., 5% CO2). After 2 hours, each liquid of the upper layer (apical) and the lower layer (basal) of the insert (10 μL for apical and 500 μL for basal) was recovered. After testing, no leakage was confirmed with Lucifer Yellow, which is a non-permeable fluorescent dye.
The device used was LC/MS/MS (triple quadrupole type). […]
Based on the calculation expression shown in the following expression, a permeability coefficient Papp, which represents the membrane permeability, was calculated from each quantitative value. […]

| Papp A→B at 2 h, 10 μmol/L (MDCK II cells, 10 μmol/L sample in HBSS, 2 hours, 37° C., apical to basal, read-out: Cell membrane permeability Papp) [nm/s] | SMILES | Papp A→B at 2 h, 10 μmol/L (MDCK) [nm/s] |
| --- | --- | --- |
| 0.4 | CC(C)C[C@@H]1NC(=O)[C@H](CC(C)C)N(C)C(=O)CSCC[C@@H](C(=O)N2CCCCC2)NC(=O)[C@H](C)N(C)C(=O)[C@@H]2CCCN2C(=O)[C@H](CC(C)C)N(C)C(=O)[C@H](C)NC(=O)[C@H](C)N(C)C(=O)[C@H](CC(C)C)N(C)C(=O)[C@H](CC(C)C)N(C)C1=O [Compound 2] ({CH2CO}-[NMeL]L[NMeL][NMeL][NMeA]A[NMeL]P[NMeA][hCys]-Piperidide; thioether N-10) | – |
| – | CC(C)C[C@@H]1NC(=O)[C@H](C)N(C)C(=O)[C@@H](C)N(C)C(=O)[C@H](CC(C)C)N(C)C(=O)[C@H](CC(C)C)N(C)C(=O)[C@H](CC(C)C)NC(=O)[C@H](CC(C)C)N(C)C(=O)CSCC[C@@H](C(=O)N2CCCCC2)NC(=O)[C@H](C)N(C)C(=O)[C@H](C)N(C)C1=O [Compound 1] ({CH2CO}-[NMeL]L[NMeL][NMeL][dNMeA][NMeA]L[NMeA][NMeA][hCys]-Piperidide; thioether N-10) | 11 |
